Several values for one entry are separate records, joined by “and”; a condition that tells them apart may be missing. Identical values can stand only once.
What was measured:
[1] = instrument: TW, calibrated with phosphatidylcholines (ESI+) and phosphatidylethanolamines (ESI-)
[2] = instrument: DT, stepped-field
[3] = [M+H]+; instrument: DT; stepped-field
[4] = instrument: DT, single field, calibrated with Agilent tune mix (Agilent)
[5] = [M+Na]+; instrument: DT; stepped-field

CCCCCCCC/C=C\CCCCCCCC(=O)OC[C@@H](O)COP(=O)([O-])OCC[N+](C)(C)C [LPC(18:1)]
collision cross section (N2) ([1]; [M+H]+): 230.8 Å² | collision cross section (N2) ([2]; [M+H]+): 236.2 Å² | collision cross section (N2) [3]: 235.59 Å² and 236.1 Å² | collision cross section (N2) ([4]; [M+HCOO]-): 238.6 Å² | collision cross section (N2) ([4]; [M+Na]+): 236.1 Å²

CC/C=C\C/C=C\C/C=C\CCCCCCCC(=O)OC[C@H](COP(=O)([O-])OCC[N+](C)(C)C)OC(=O)CCCCCC/C=C\C/C=C\C/C=C\CCCCC [PC(38:6)]
collision cross section (N2) ([1]; [M+CH3COO]-): 294 Å² | collision cross section (N2) ([1]; [M+H]+): 286.8 Å² | collision cross section (N2) ([2]; [M+H]+): 299.9 Å² | collision cross section (N2) ([4]; [M+HCOO]-): 291.9 Å² | collision cross section (N2) ([4]; [M+Na]+): 293.3 Å²

CCCCCC/C=C\CCCCCCCC(=O)OC[C@H](COP(=O)(O)OCCN)OC(=O)CCCCCCCCC/C=C\CCCCCCCCCC [PE(38:2)]
collision cross section (N2) ([1]; [M-H]-): 274.1 Å² | collision cross section (N2) ([2]; [M+H]+): 298.6 Å² | collision cross section (N2) ([4]; [M+H]+): 285.1 Å²

CCCCC/C=C\C/C=C\C/C=C\CCCCC(=O)O[C@H](COCCCCCCCCCCCCCCCCCC)COP(=O)(O)OCCN [PE(o36:3)]
collision cross section (N2) ([2]; [M+H]+): 290.1 Å² | collision cross section (N2) ([2]; [M-H]-): 273.1 Å² | collision cross section (N2) [5]: 285.4 Å²

CCCCC/C=C\C/C=C\C/C=C\C/C=C\CCCC(=O)O[C@H](COCCCCCCCCCCCCCCCC)COP(=O)(O)OCCN [PE(o36:4)]
collision cross section (N2) ([2]; [M-H]-): 270 Å² | collision cross section (N2) [5]: 281.6 Å²

CCCCC/C=C\C/C=C\C/C=C\C/C=C\C/C=C\CCC(=O)O[C@H](COCCCCCCCCCCCCCCCC)COP(=O)(O)OCCN [PE(o38:5)]
collision cross section (N2) ([2]; [M-H]-): 277.8 Å² | collision cross section (N2) [5]: 287.7 Å²

CCCCCCCCCCCCCCCCC(=O)O[C@H](COC(=O)CCCCCCCCCCCCCC)COP(=O)(O)OC[C@@H](O)CO [PG(32:0)]
collision cross section (N2) ([1]; [M+Na]+): 277.3 Å² | collision cross section (N2) ([1]; [M-H]-): 263.5 Å² | collision cross section (N2) ([2]; [M-H]-): 270.3 Å² | collision cross section (N2) ([4]; [M-H]-): 265.1 Å²

CCCC/C=C\CCCCCCCC(=O)OC[C@H](COP(=O)(O)OC[C@@H](O)CO)OC(=O)CCCCCCCCCCC/C=C\C/C=C\CCCCC [PG(36:3)]
collision cross section (N2) ([1]; [M+Na]+): 282 Å² | collision cross section (N2) ([1]; [M-H]-): 272.2 Å² | collision cross section (N2) ([2]; [M-H]-): 280 Å² | collision cross section (N2) ([4]; [M+H]+): 285.4 Å² | collision cross section (N2) ([4]; [M+NH4]+): 286.5 Å² | collision cross section (N2) ([4]; [M-H]-): 272.8 Å²

CCCC/C=C\C/C=C\CCCCCCCC(=O)O[C@H](COC(=O)CCCCCCC/C=C\CCCCCCCCC)COP(=O)(O)O[C@H]1C(O)C(O)C(O)[C@@H](O)C1O (stereo partly drawn) [PI(36:3)]
collision cross section (N2) ([1]; [M+Na]+): 291.1 Å² | collision cross section (N2) ([1]; [M-H]-): 287.2 Å² | collision cross section (N2) ([2]; [M-H]-): 296.3 Å² | collision cross section (N2) ([4]; [M+H]+): 296.4 Å² | collision cross section (N2) ([4]; [M+NH4]+): 297.4 Å² | collision cross section (N2) ([4]; [M+Na]+): 295.5 Å²

CCCCC/C=C\C/C=C\CCCCCCCCCCCC(=O)O[C@H](COC(=O)CCCCCCC/C=C\CCCCCCCC)COP(=O)(O)OC[C@H](N)C(=O)O [PS(40:3)]
collision cross section (N2) ([2]; [M-H]-): 299 Å² | collision cross section (N2) ([4]; [M+H]+): 295.2 Å²

CCCCC/C=C\C/C=C\C/C=C\CCCCC(=O)OC[C@H](COP(=O)(O)OC[C@H](N)C(=O)O)OC(=O)CCCCCCCCCCC/C=C\C/C=C\CCCCC [PS(40:5)]
collision cross section (N2) ([1]; [M-H]-): 285.6 Å² | collision cross section (N2) ([2]; [M-H]-): 296.4 Å² | collision cross section (N2) ([4]; [M+H]+): 292.1 Å² | collision cross section (N2) ([4]; [M+Na]+): 296.7 Å² | collision cross section (N2) ([4]; [M-H]-): 285.7 Å²

CCCCC/C=C\C/C=C\C/C=C\C/C=C\CCCCCC(=O)O[C@H](COC(=O)CCCCCCC/C=C\C/C=C\CCCCC)COP(=O)(O)OC[C@H](N)C(=O)O [PS(40:6)]
collision cross section (N2) ([1]; [M-H]-): 284.6 Å² | collision cross section (N2) ([2]; [M-H]-): 295.4 Å² | collision cross section (N2) ([4]; [M+H]+): 289.6 Å² | collision cross section (N2) ([4]; [M+Na]+): 293.9 Å² | collision cross section (N2) ([4]; [M-H]-): 284.9 Å²
